Here are results for 13 compounds from paper PMC10318132, “Synthesis and activity study of novel N,N-diphenylurea derivatives as IDO1 inhibitors” (Frontiers in Chemistry, 2023).

Experiment [1] concerns the target T1, IDO1 (Homo sapiens, UniProt P14902).
T1 construct: host or cells: HeLa cells stimulated with 100 ng/mL human IFN-γ
The experiment can be described thus: Hela cell-based functional assay of IDO1 inhibition (kynurenine read at 480 nm). Conditions: Hela cells, 100 ng/mL human IFN-γ, 18 h; averages ±SD of two parallel experiments. As for the experimental part:
Based on a comprehensive review of the literature, we employed a Hela cell-based functional assay to investigate the IDO1 inhibition activities of the designed compounds.
To assess the inhibitory effect of the designed compounds against IDO1, Hela cells were seeded at 50,000–60,000 cells per well in 100 μL of complete Dulbecco’s modified eagle medium growth medium in a 96-well plate and incubated for 12–18 h. On the second day, diluted inhibitor at a final concentration of 100 ng/mL human IFN-γ was added (100 μL per well) and incubated at 37°C with 5% CO2 for 18 h. On the third day, 140 μL of medium was transferred into a new 96-well plate, and the protein was precipitated with 10 μL of 6.1 N trichloroacetic acid (CCl3COOH) at 50°C for 30 min. The plate was then centrifuged at 2,500 rpm for 10 min, and 100 μL of supernatant was transferred to another 96-well plate and mixed with 100 μL of 2% (w/v) p-dimethylaminobenzaldehyde in CH3COOH. The plate was incubated at 25°C for 10 min, and the yellow color derived from kynurenine was measured at 480 nm using a microplate reader (PE, United States). Inhibition curves with IC50 values were generated using Prism 6.0.

Experiment [2] concerns melanin-concentrating hormone. The arrangement: method as in McBriar et al., 2006. Conditions: melanin-concentrating hormone antagonist; ref McBriar et al., 2006; cited from earlier work.
Experiment [3] concerns Staphylococcus aureus. The arrangement: method as in Babu et al., 2015. Conditions: ref Babu et al., 2015; cited from earlier work.
The subject of experiment [4] is pancreatic cancer cells. On the set-up: method as in Khanet al. Conditions: ref Khanet al.; cited from earlier work.
The subject of experiment [5] is laryngeal squamous carcinoma cells. On the set-up: method as in Khanet al. To be noted: ref Khanet al.; cited from earlier work.
Experiment [6] deals with HIV-1 protease. On the set-up: method as in The Lipton laboratory. Conditions: ref The Lipton laboratory; cited from earlier work.

T1 sequence (P14902 whole entry): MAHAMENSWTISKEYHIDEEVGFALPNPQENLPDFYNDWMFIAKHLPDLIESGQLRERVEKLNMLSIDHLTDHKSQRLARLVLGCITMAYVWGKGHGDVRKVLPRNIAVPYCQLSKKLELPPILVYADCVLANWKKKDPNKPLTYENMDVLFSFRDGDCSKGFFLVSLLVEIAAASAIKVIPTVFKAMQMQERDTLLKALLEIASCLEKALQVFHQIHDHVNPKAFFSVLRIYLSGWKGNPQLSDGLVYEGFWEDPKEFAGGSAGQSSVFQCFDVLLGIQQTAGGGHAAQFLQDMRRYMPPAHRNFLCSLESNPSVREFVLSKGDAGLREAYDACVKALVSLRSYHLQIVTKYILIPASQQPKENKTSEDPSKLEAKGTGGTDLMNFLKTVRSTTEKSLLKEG

For orientation: IC50 means the concentration needed to halve the response being measured. A high value points to lower potency. For the compound `Cc1ccc(-c2csc3nnc(SCC(=O)Nc4ccc5c(c4)OCO5)n23)cc1` [Amg-1, reference compound], 3.97 µM corresponded to half-maximal inhibition in experiment [1] (IC50).

Regarding `COc1ccc(NC(=O)NCc2cn(Cc3ccccc3Br)nn2)cc1` [Compound 3a, 1-((1-(2-bromobenzyl) -1H-1,2,3-triazol-4-yl)methyl) -3-(4-methoxyphenyl) urea], in experiment [1], the IC50 was greater than 20 µM.

In experiment [1], `O=C(NCc1cn(Cc2ccccc2Br)nn1)Nc1ccc(Br)cc1` [Compound 3d, 1-((1-(2-bromobenzyl) -1H-1,2,3-triazol-4-yl)methyl) -3-(4-bromophenyl) urea] registered an IC50 greater than 20 µM.

On to `O=C(NCc1cn(Cc2cccc(Br)c2)nn1)Nc1ccc(Br)cc1` [Compound 3e, 1-((1-(3-bromobenzyl) -1H-1,2,3-triazol-4-yl)methyl) -3-(4-bromophenyl) urea], for which the IC50 in experiment [1] was greater than 20 µM.

Regarding `COc1ccc(NC(=O)NC(C)(C)c2cn(Cc3ccccc3Br)nn2)cc1` [Compound 3f, 1-(2-(1-(2-bromobenzyl)-1H-1,2,3-triazol-4-yl)propan-2-yl)-3-(4-methoxyphenyl)urea], in experiment [1], the IC50 stood at 17.9 ± 3.14 µM.

In the case of `COc1ccc(NC(=O)NC(C)(C)c2cn(Cc3cccc(Br)c3)nn2)cc1` [Compound 3g, 1-(2-(1-(3-bromobenzyl)-1H-1,2,3-triazol-4-yl)propan-2-yl)-3-(4-methoxyphenyl)urea], in experiment [1], the IC50 was determined as 1.73 ± 0.97 µM.

Compound `COc1ccc(NC(=O)NC(C)(C)c2cn(Cc3cccc(OC)c3)nn2)cc1` [Compound 3h, 1-(2-(1-(3-methoxybenzyl)-1H-1,2,3-triazol-4-yl)propan-2-yl)-3-(4-methoxyphenyl)urea] gave a 50% inhibitory concentration (IC50) in experiment [1] of 5.82 ± 2.65 µM.

`CC(C)(NC(=O)Nc1ccc(Br)cc1)c1cn(Cc2ccccc2Br)nn1` [Compound 3i, 1-(2-(1-(2-bromobenzyl)-1H-1,2,3-triazol-4-yl)propan-2-yl)-3-(4-bromophenyl)urea] yielded an IC50 in experiment [1] greater than 20 µM.

Compound `CC(C)(NC(=O)Nc1ccc(Br)cc1)c1cn(Cc2cccc(Br)c2)nn1` [Compound 3j, 1-(2-(1-(3-bromobenzyl)-1H-1,2,3-triazol-4-yl)propan-2-yl)-3-(4-bromophenyl)urea] showed an IC50 in experiment [1] greater than 20 µM.

For the compound `CN1CCN(CCCN(C(=O)Nc2ccc(F)c(C(F)(F)F)c2)[C@@H]2CC[C@]3(c4ccc(C#N)cc4)C[C@H]23)CC1` [Compound 7], the “effect on body weight” value in experiment [2] is on record as “effective in reducing body weight”.

Turning to `O=C(Nc1ccc(F)c(C(F)(F)F)c1)N1CCN(c2ncc3cc(-c4cccnc4F)ccc3n2)CC1` [Compound 8], the “inhibitory effect on the proliferation of Staphylococcus aureus” value in experiment [3] is given as “excellent inhibitory effect”.

`CNc1ccccc1C(=O)NC(=O)Nc1ccc(Oc2ncc(Br)cn2)c(C)c1` [Compound 9]: in experiment [4], the “repression of pancreatic cancer cells” value is given as “effectively repress”. In addition, the “repression of laryngeal squamous carcinoma cells” value in experiment [5] is listed as “effectively repress”.

Take `COC(=O)C(NC(=O)C(NC(=O)C(Cc1ccccc1)NC(=O)NC(Cc1ccccc1)NC(=O)C(C)NC(=O)C(C)N)C(C)C)C(C)C` (centres unmarked) [Compound 10]: the “inhibitory effect on HIV-1 protease” value in experiment [6] is recorded as “moderate inhibitory effect”.
